Data as given in patent publication US9265751B2, “Methods for treating chronic pain” (Nagasaki University, priority 2008, dated 2016).
Entries after “also recorded” stand apart in the source; their conditions may differ.

Legend:
Format in all cases: in vivo, mouse
ATX = assay: Mechanical nociception test (automated digitized von Frey) in ICS stress mice given ATX-AS/ATX-MS i.c.v.; details: P1 to P12 after ICS stress; 10 μg/5 μl i.c.v.
Description: ATX-antisense is a drug that suppresses the synthesis of the mRNA of ATX, an LPA synthetase. The ATX-antisense (ATX-AS) used was designed to have the base sequence: “5′-GTCTTGCCATGCCGAGGGAT-3′ (SEQ ID NO:13)”, and the ATX-missense (ATX-MS) used was designed to have the base sequence: “5′-GTTCTCGCAGTCGCAGGAGT-3′ (SEQ ID NO:14)”. The dosage was 10 μg/5 μl both for the antisense and for the missense.
ATX-antisense (operon, 3170003) was given by intracerebroventricular administration on consecutive days starting five days previously, including days of stress loading (FIG. 8A). Doses were given in solution in artificial cerebro-spinal fluid. For control groups, the same amounts of ATX-missense (operon, 3170004) and the solvent were administered, respectively. […]
(§1) Prior to the experiment, each mouse was placed on a rack on a mesh and covered with a cage from above, and the animal was acclimated to the same environment as the experiment for not less than 1 hour. The tip of a plastic chip was pressed vertically against the center of a hind paw of the mouse from below the rack; when the mouse behaved to withdraw the hind leg, the automatically measured value was read. […]
(§2) With the day of completion of ICS loading as P1, pain threshold values were measured on P3, P5, P12 and P19.

LPA2 receptor = assay: Mechanical stimulus-induced pain test (digitized von Frey) in SART (ICS) stress mice given LPA2 AS-ODN/MS-ODN i.c.v.
LPA1 receptor = assay: Mechanical stimulus-induced pain test (digitized von Frey) in SART (ICS) stress mice given LPA1 AS-ODN/MS-ODN i.c.v.
Description: Exposure to SART (ICS) stress was achieved by repeatedly altering extremely different rearing environmental temperatures. Temperature settings were established at room temperature (24° C.) and cold temperature (4° C.). Rearing cages were placed in environments set at the respective temperatures; the animals were reared, with transfer of the mice only every 30 minutes in the daytime (from 10:00 to 16:30), and at the cold temperature in the nighttime (from 16:30 to 10:00 on the following day). This repeated stress was given for 3 days from 16:30 on the day before stress loading to 10:00 on day 3 of stress loading. A solid food and agar for water supply were always kept in the cage during the above-described stress loading period, to maintain an environment allowing the animals to have free access thereto.
A hypersensitive response induction experiment with ICS stress was applied to mice previously dosed with an antisense oligodeoxynucleotide that complementarily binds to the lysophosphatidic acid (hereinafter, denoted as LPA) receptor gene to inhibit the expression thereof (hereinafter, denoted as AS-ODN) as an animal model of generalized pain disease, and the stress exposure of Production Example 1 was performed.
Ten to twelve C57BL/6J mice at 6 weeks of age (20 to 22 g) were used in a normal control group and an ICS stress loading group.
Using “5′-[…]-3′ (SEQ ID NO:5)” as AS-ODN, BLAST search was performed; it was confirmed that the sequence thereof was specific for the LPA1 receptor. For comparative control, mice dosed with a missense oligodeoxynucleotide having a noncomplementary sequence (hereinafter, denoted as MS-ODN) and mice dosed with artificial cerebro-spinal fluid (ACSF) as Vehicle were used. Using “5′-[…]-3′ (SEQ ID NO:6)” as MS-ODN, BLAST search was performed; it was confirmed that the sequence thereof was not similar to other receptors.
SART (ICS) stress based on Production Example 1 above was loaded on the mice after being given ODN and ACSF, after which pain threshold values were measured, and changes over days were examined.
In Example 3, chronic pains were evaluated on mice loaded with stress based on Production Example and Examples. Regarding how to evaluate chronic pains, pain threshold values were evaluated over days by a mechanical stimulus-induced pain test. The mechanical stimulus-induced pain test was performed according to the digitized von Frey method.
AS-ODN was given by intracerebroventricular administration at 10 μg once daily, starting five days before SART (ICS) stress loading. After pretreatment for 5 consecutive days, SART (ICS) stress was started, and intracerebroventricular administration was performed once a day even during the stress loading period. However, there was no administration on day 3 of stress loading, after which administration was discontinued; a total of 7 administrations were performed. The single-dose volume was 5 μl.
In the same way as the above-described method of treatment, MS-ODN and Vehicle were administered 7 times in total before stress loading and during the stress loading period.
On mice acclimated to the environment on a 5 mm×5 mm-mesh net (adaptation-applied), a custom-made plastic chip was applied to a planta of each mouse under a constant pressure from below. At that time, responding weight threshold values were measured digitally.

PLA2 [1] = assay: Thermal nociception test (Hargreaves) in ICS stress mice given BEL i.c.v.; details: between P1 and P5, significant change at P3, two doses
Description: (§3) As a PLA2 inhibitor, Bromoenol lactone (Cayman chemical) was used. Drug administration was performed twice in total at 10 a.m. before performing repeated cold stimulation in stress loading (FIG. 9A).
(§4) The whole amount of 5 mg of the drug was dissolved in 200 μl of DMSO and dispensed at 20 nmol/10 μl. 384 μl of artificial cerebro-spinal fluid was added thereto. For a control group, the same amounts of DMSO and artificial cerebro-spinal fluid were mixed and administered. Using a 50 μl Hamilton microsyringe and a needle-equipped cannula, a total volume of 5 μl was given by intracerebroventricular administration. A 26-gauge needle for intracerebroventricular administration was used.
(§5) To create a mouse model of fibromyalgia, ICS (Intermittent Cold Stress) was loaded. […]
Prior to the experiment, each mouse was placed on a glass plate and covered with a cage from above, and the animal was acclimated to the same environment as the experiment for not less than 1 hour. A thermal stimulus was given to a hind paw of the mouse; when the mouse behaved to escape the stimulus, the automatically measured value was read. […]
as §2

PLA2 [2] = assay: Mechanical nociception test (automated digitized von Frey) in ICS stress mice given BEL i.c.v.; details: between P1 and P5, significant change at P3, two doses
Description: as §3, §4, §5, §1, §2

[3] = SART (ICS) stress loading group
[4] = SART (ICS) stress loading group, day 1 of stress loading, 10 μg i.c.v. once daily
[5] = SART (ICS) stress loading group, day before stress loading, 10 μg i.c.v. once daily
[6] = treated normal control group (no stress), day 1 of stress loading
[7] = SART (ICS) stress loading group, pretreated i.c.v.

Molecule	persistence of hypersensitive response (LPA2 receptor; [3])	pain threshold value (PWT) (LPA2 receptor; [4]) [g]	pain threshold value (PWT) (LPA2 receptor; [5]) [g]	pain threshold value (PWT) (LPA1 receptor; [4]) [g]	pain threshold value (PWT) (LPA1 receptor; [5]) [g]	further results
5′-GTTCTCGCAGTCGCAGGAGT-3′ (DNA GTTCTCGCAGTCGCAGGAGT; listed as DNA, chemistry not given here) [ATX-MS, ATX missense control oligonucleotide]						mechanical nociceptive response threshold values after ICS stress loading (ATX): significant reductions
5′-CGATACACTAGAACGCTCGA-3′ (DNA, backbone and methylation of C not given here) [MS-ODN]	at least 19 days	5.79 ± 0.1	9.58 ± 0.3	5.68 ± 0.7	9.59 ± 0.3	pain threshold value (PWT) (LPA2 receptor; [6]): 9.65 ± 0.3 g; persistence of hypersensitive response (LPA1 receptor; [3]): at least 19 days; pain threshold value (PWT) (LPA1 receptor; [6]): 9.49 ± 0.2 g
5′-AGCTGCCATGACAGTGCTGT-3′ (DNA, backbone and methylation of C not given here) [LPA1 AS-ODN]				8.76 ± 0.5	9.77 ± 0.4	hypersensitive response / chronic pain after SART (ICS) stress, measured over days (LPA1 receptor; [7]): no hypersensitive responses were noted; also recorded: suppressed; threshold values of treated normal control group versus Vehicle and LPA1 MS-ODN groups (LPA1 receptor; normal control group (no stress)): comparable
5′-TACTACAACGAGACCATCGG-3′ (DNA, backbone and methylation of C not given here) [LPA2 AS-ODN]	at least 19 days	6.43 ± 0.1	9.77 ± 0.5			suppression of SART (ICS) stress-induced pains (LPA2 receptor; [7]): no suppression
O=C1O/C(=C/Br)CCC1c1cccc2ccccc12 (stereo not shown) [BEL, Bromoenol lactone]						thermal hyperalgesia due to ICS stress (PLA2 [1]): tended to be suppressed; reductions of mechanical nociceptive response threshold values due to ICS stress (PLA2 [2]): tended to be suppressed
